Earlier results on 1 compound are cited in PMC4381587, “A novel PI3K inhibitor PIK-C98 displays potent preclinical activity against multiple myeloma” (Oncotarget, 2014).

Data set [1] deals with relapsed chronic lymphocytic leukemia. The arrangement: method as in PMID 24450857, PMID 24450858. The note with it: phase II, single agent; cited from earlier work.
Data set [2] deals with relapsed indolent lymphoma. The arrangement: method as in PMID 24450857, PMID 24450858. The note with it: phase II, single agent; cited from earlier work.

As for `CC[C@H](Nc1ncnc2[nH]cnc12)c1nc2cccc(F)c2c(=O)n1-c1ccccc1` [idelalisib], the overall complete rate in data set [1] is 72%. In data set [2], the total response rate was 57%.
